Measured values: the NIST ThermoML archive (doi:10.1021/je500886a)

Assay: mn = molality of the nth substance listed, in mol/kg
Conditions: 101 kPa, Liquid

O=C(CO)[C@@H](O)[C@H](O)[C@@H](O)CO [L-sorbose] + O
Conditions	mass density [kg/m3]	viscosity [mPa·s]
288.15 K, m1 = 0.04909	–	1.162
288.15 K, m1 = 0.05105	1002.68	–
288.15 K, m1 = 0.06584	1003.7	–
288.15 K, m1 = 0.0704	–	1.173
288.15 K, m1 = 0.08456	–	1.182
288.15 K, m1 = 0.08815	1005.22	–
288.15 K, m1 = 0.1091	–	1.195
288.15 K, m1 = 0.1289	–	1.206
288.15 K, m1 = 0.1505	1009.38	–
288.15 K, m1 = 0.1507	–	1.216
298.15 K, m1 = 0.04909	–	0.907
298.15 K, m1 = 0.05105	1000.57	–
298.15 K, m1 = 0.06584	1001.57	–
298.15 K, m1 = 0.0704	–	0.916
298.15 K, m1 = 0.08456	–	0.923
298.15 K, m1 = 0.08815	1003.06	–
298.15 K, m1 = 0.1073	1004.33	–
298.15 K, m1 = 0.1091	–	0.931
298.15 K, m1 = 0.1507	–	0.947
308.15 K, m1 = 0.04909	–	0.733
308.15 K, m1 = 0.06584	998.56	–
308.15 K, m1 = 0.0704	–	0.738
308.15 K, m1 = 0.08815	1000.04	–
308.15 K, m1 = 0.1073	1001.3	–
308.15 K, m1 = 0.1091	–	0.75
308.15 K, m1 = 0.1289	–	0.756
308.15 K, m1 = 0.1317	1002.89	–
308.15 K, m1 = 0.1505	1004.1	–
308.15 K, m1 = 0.1507	–	0.762
318.15 K, m1 = 0.04909	–	0.606
318.15 K, m1 = 0.05105	993.72	–
318.15 K, m1 = 0.06584	994.7	–
318.15 K, m1 = 0.0704	–	0.611
318.15 K, m1 = 0.08456	–	0.615
318.15 K, m1 = 0.08815	996.17	–
318.15 K, m1 = 0.1073	997.41	–
318.15 K, m1 = 0.1091	–	0.62
318.15 K, m1 = 0.1289	–	0.624
318.15 K, m1 = 0.1317	998.98	–
318.15 K, m1 = 0.1505	1000.18	–
318.15 K, m1 = 0.1507	–	0.629

[Br-].[NH4+] [ammonium bromide] + O
Conditions	mass density, 288.15 K [kg/m3]	mass density, 298.15 K [kg/m3]	mass density, 308.15 K [kg/m3]	mass density, 318.15 K [kg/m3]	viscosity, 288.15 K [mPa·s]	viscosity, 298.15 K [mPa·s]	viscosity, 308.15 K [mPa·s]	viscosity, 318.15 K [mPa·s]
m1 = 0.05	1001.05	998.76	995.75	992.91	1.132	0.888	0.719	0.597
m1 = 0.5	1024.05	1021.81	1019.06	1015.68	1.096	0.87	0.71	0.598
m1 = 1	1049.01	1046.88	1043.31	1040.33	1.057	0.853	0.697	0.6
m1 = 2	1095.99	1092.56	1088.78	1085.68	1.002	0.827	0.678	0.602

OC[C@@H](O)[C@H](O)[C@H](O)[C@@H](O)CO [dulcitol] + O
Conditions	mass density, 288.15 K [kg/m3]	mass density, 298.15 K [kg/m3]	mass density, 308.15 K [kg/m3]	mass density, 318.15 K [kg/m3]	viscosity, 288.15 K [mPa·s]	viscosity, 298.15 K [mPa·s]	viscosity, 308.15 K [mPa·s]	viscosity, 318.15 K [mPa·s]
m1 = 0.0503	–	–	–	–	1.164	0.909	0.732	0.605
m1 = 0.05086	1002.35	1000.21	997.18	993.33	–	–	–	–
m1 = 0.07104	–	–	–	–	1.175	0.916	0.737	0.609
m1 = 0.0735	1003.75	1001.6	998.55	994.68	–	–	–	–
m1 = 0.08768	1004.62	1002.46	999.39	995.51	–	–	–	–
m1 = 0.08872	–	–	–	–	1.185	0.921	0.743	0.612
m1 = 0.1066	1005.78	1003.6	1000.52	996.63	–	–	–	–
m1 = 0.1091	–	–	–	–	1.196	0.928	0.747	0.616
m1 = 0.1279	1007.07	1004.88	1001.77	997.86	–	–	–	–
m1 = 0.1283	–	–	–	–	1.204	0.935	0.752	0.619
m1 = 0.1457	1008.14	1005.94	1002.81	998.89	–	–	–	–
m1 = 0.1468	–	–	–	–	1.215	0.941	0.757	0.622

OC[C@@H](O)[C@H](O)[C@@H](O)CO [xylitol] + O
Conditions	mass density, 288.15 K [kg/m3]	mass density, 298.15 K [kg/m3]	mass density, 308.15 K [kg/m3]	mass density, 318.15 K [kg/m3]	viscosity, 288.15 K [mPa·s]	viscosity, 298.15 K [mPa·s]	viscosity, 308.15 K [mPa·s]	viscosity, 318.15 K [mPa·s]
m1 = 0.04981	–	–	–	–	1.164	0.909	0.733	0.607
m1 = 0.0542	1001.89	999.75	996.72	992.86	–	–	–	–
m1 = 0.06784	–	–	–	–	1.173	0.915	0.738	0.611
m1 = 0.07245	1002.81	1000.65	997.6	993.73	–	–	–	–
m1 = 0.0852	1003.45	1001.27	998.22	994.33	–	–	–	–
m1 = 0.08897	–	–	–	–	1.183	0.922	0.743	0.615
m1 = 0.1059	–	–	–	–	1.191	0.93	0.747	0.619
m1 = 0.1095	1004.66	1002.44	999.37	995.46	–	–	–	–
m1 = 0.1313	–	–	–	–	1.204	0.939	0.755	0.624
m1 = 0.1314	1005.74	1003.49	1000.41	996.48	–	–	–	–
m1 = 0.1501	–	–	–	–	1.212	0.945	0.76	0.628
m1 = 0.1527	1006.77	1004.5	1001.41	997.46	–	–	–	–
